According to US20110028438A1, “MEDICAL USE OF 3-2,2,2-TRIMETHYLHYDRAZINIUM PROPIONATE SALTS” (JSC GRINDEKS, priority 2007, published 2011):
Marks after values point to notes of the source that are not given here.

How the values were obtained:
[1] = as disclosed in EP 1667960 A; cited from earlier work
adult male Wistar rats = assay: Myocardial infarction in vivo (coronary artery occlusion and 120 minute reperfusion); design: species or system rat; conditions: for Therapeutic effect in in vivo myocardial infarction model compared with Meldonium dihydrate: result in words; for Area of Necrosis, % of Area at Risk / Area of Risk/left ventricle area / Infarct size, % of control: rats, 100 mg/kg by mouth for 14 days; for Area of Necrosis, % of Area at Risk: after 120 minute reperfusion; for Area of Risk/left ventricle area: area at risk expressed as percentage of the left ventricle; for Infarct size, % of control: relative to saline control group
Procedure: Experiments were conducted on adult male Wistar rats with initial weight of 300-350 g. During the experiment, the animals were kept in Standard crates in groups of 8. The feed was a standardized diet R70 (LABFOR, Lactamin AB, Sweden). The room temperature was kept at 21-23° C., relative humidity at 65±10%, 12 hour light/darkness cycle.
Rats weighing approximately 300 g were randomly divided into 4 groups of 8 animals each. The first group received saline by mouth (control group), the second received 100 mg/kg Meldonium dihydrate by mouth, the third 100mg/kg Meldonium hydrogen fumarate and the fourth 100 mg/kg Meldonium dihydrogen phosphate received for 14 days.
Rats were anesthetized with sodium pentobarbital (60 mg/kg i.p.). They were intubated and artificially respirated with rodent respirator (Rodent Ventilator 7025, Ugo Basile, (tally) with 15 mL/kg room air at a respiration rate of 55 breaths/min. Thoracic was open on the left side of breastbone by cutting fourth and fifths, if necessary, ribs. The pericard was open and 5/0 polypropylene suture (Surgipro II, Syneture) was passed under the left anterior descending coronary artery and threaded through a small plastic tube to permit reversible occlusion of the coronart artery. Coronary flow was measured using an ultrasound flow detector (HSE) and PowerLab 8/30 system from ADlnstruments.
Occlusion was performed by constricting threads through a plastic tube.
At the end of the 120 minute reperfusion, After reperfusion hearts were excised and retrogradely perfused via aorta at a constant pressure of 50 mm Hg, with oxygenated Krebs-Henseleit buffer (content in mmol/L: NaCl 118, Ca Cl2 2.52, MgCl2 1.64, NaHCO3 24.88, KH2PO4 1.18, glucose 10.0, EDTA 0.05) pH 7.3-7.5 at 37° C. Then after 10 min the left anterior descending coronary artery was relegated and the risk zone was delineated with 4 mL of 0.1% methylene blue solution in Krebs-Henseleit buffer infused via the aorta root. Hearts were sectioned transversely from the apex to the base of 2 mm thickness and incubated in 1% triphenyl-tetrazolium chloride in phosphate buffer (pH 7.4, 37° C.) for 10 minutes to stain viable tissue red and necrotic tissue white. Afterward, the right ventricle was cut off and photos of the left-ventricle slices were made with a Minolta 7D photo camera. Computerized planemetric analysis of photographs was performed using Image-Pro Plus 4.5.1 software to determine the area at risk (AR) and area of necrosis (AN) expressed as percentage of the left ventricle (LV). Obtained values were then used to calculate the infarct size (IS) as percentage of risk area according to formula: […]

Compound	Stability comparatively with Meldonium dihydrate [1]	Therapeutic effect in in vivo myocardial infarction model compared with Meldonium dihydrate (adult male Wistar rats)	Area of Necrosis, % of Area at Risk (adult male Wistar rats)	Area of Risk/left ventricle area (adult male Wistar rats)	Infarct size, % of control (adult male Wistar rats)
C[N+](C)(C)NCCC(=O)O.O=C([O-])/C=C/C(=O)O [Meldonium hydrogen fumarate, 3-(2,2,2-trimethylhydrazinium) propionate hydrogen fumarate]	more stable substance comparatively with Meldonium dihydrate	more effective as Meldonium dihydrate	52.2 ± 4.3 % of Area at Risk	62.0 ± 3.5	81.0 ± 6.6 % of control
C[N+](C)(C)NCCC(=O)O.O=P([O-])(O)O [Meldonium dihydrogen phosphate, 3-(2,2,2-trimethylhydrazinium) propionate dihydrogen phosphate]	more stable substance comparatively with Meldonium dihydrate	statistically better therapeutically effect than Meldonium dihydrate	50.9 ± 2.6*^,# % of Area at Risk	57.0 ± 3.0	79.0 ± 4.1*^,# % of control
C[N+](C)(C)NCCC(=O)[O-] [Meldonium dihydrate, 3-(2,2,2-Trimethylhydrazinium) propionate dihydrate, reference compound]			64.0 ± 2.7 % of Area at Risk	58.0 ± 2.2	99.0 ± 4.2 % of control
